Measurements from US10781215B2, “Heterobicyclic compounds useful as modulators of IL-12, IL-23 and/or IFNα responses” (BRISTOL-MYERS SQUIBB COMPANY, priority 2016, dated 2020).

Experiments:
[1] = tested on: IL-23 stimulated Kit225 T cells (STAT-dependent luciferase reporter); test: Kit225 T cell assay, IL-23 stimulated STAT-dependent luciferase reporter; assay type: cell-based; settings: 20 ng/mL human recombinant IL-23, 5-6 hours
Description: (§1) Kit225 T cells with a stably-integrated STAT-dependent luciferase reporter were plated in RPMI (Gibco) containing 10% heat-inactivated FBS (Gibco) and 100 U/mL PenStrep (Gibco). The cells were then stimulated with either 20 ng/mL human recombinant IL-23 or 200 U/mL human recombinant IFNα (PBL InterferonSource) for 5-6 hours. Luciferase expression was measured using the STEADY-GLO® Luciferase Assay System (Promega) according to the manufacturer's instructions. Inhibition data were calculated by comparison to no inhibitor control wells for 0% inhibition and non-stimulated control wells for 100% inhibition. Dose response curves were generated to determine the concentration required to inhibit 50% of cellular response (IC50) as derived by non-linear regression analysis.

[2] = tested on: IFNα stimulated Kit225 T cells (STAT-dependent luciferase reporter); test: Kit225 T cell assay, IFNα stimulated STAT-dependent luciferase reporter; assay type: cell-based; settings: 200 U/mL human recombinant IFNα, 5-6 hours
Description: as §1

[3] = target: T1, recombinant human His-tagged Tyk2 pseudokinase domain (His-TVMV-Tyk2, 575-869) (Homo sapiens, UniProt P29597); test: Probe displacement assay (HTRF format); assay type: binding; settings: fluorescein labeled probe, Tyk2 pseudokinase domain 0.5 nM
T1 construct: made in house
T1 sequence (P29597 with tags, fused parts or gaps): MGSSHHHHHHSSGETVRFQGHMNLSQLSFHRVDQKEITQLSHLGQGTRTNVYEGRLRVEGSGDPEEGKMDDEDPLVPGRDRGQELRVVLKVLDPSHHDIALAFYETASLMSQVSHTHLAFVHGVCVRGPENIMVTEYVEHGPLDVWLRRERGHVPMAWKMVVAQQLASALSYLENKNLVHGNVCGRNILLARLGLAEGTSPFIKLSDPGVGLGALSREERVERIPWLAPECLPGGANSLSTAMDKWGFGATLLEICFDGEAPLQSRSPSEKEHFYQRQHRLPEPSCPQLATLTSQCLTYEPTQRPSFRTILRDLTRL
Description: To 10 μL 26 nM fluorescein labeled probe plus 0.2 nM anti-6×His-terbium labeled antibody (Medarex, labeled by Cisbio) in assay buffer (20 mM Hepes pH 7.5, 150 mM NaCl, 10 mM MgCl2, 2 mM DTT, 50 μg/mL BSA, and 0.015% Brij 35) was added 10 μL recombinant human His-tagged Tyk2 pseudokinase domain (His-TVMV-Tyk2, 575-869) to a final concentration of 0.5 nM. After 1 h at room temperature, the HTRF signal (ratio of fluorescence intensities at emission wavelengths for fluorescein acceptor at 520 nm and terbium donor at 495 nm) was measured on an Envision Plate Reader. Percent inhibition was calculated by comparison to a control without inhibitor and a control without protein. Dose response curves were generated to determine the concentration required for inhibiting 50% of the HTRF signal (EC50).

[4] = target: T2, human Tyk2 (amino acids 575-869, His-tagged) (Homo sapiens, UniProt P29597); test: Probe displacement assay (SPA format); assay type: binding; settings: radiolabeled probe 40 nM, Tyk2 2.5 nM
T2 construct: made in house
T2 sequence (P29597 with tags, fused parts or gaps): as above
Description: Probe Displacement Assay (SPA Format) The probe displacement assay is conducted as follows: In a […], test compounds along with recombinantly expressed His-tagged protein corresponding to amino acids 575-869 of human Tyk2 (sequence shown below) at 2.5 nM, 40 nM ((R)—N-(1-(3-(8-methyl-5-(methylamino)-8H-imidazo [4,5-d]thiazolo [5,4-b]pyridin-2-yl)phenyl)ethyl)-2-([^3H]methylsulfonyl)benzamide) (preparation described below) and 80 μg/mL Copper His-Tag scintillation proximity assay beads (Perkin Elmer, Catalog # RPNQ0095) in 50 mM HEPES, pH 7.5, containing 100 μg/mL bovine serum albumin and 5% DMSO were incubated for 30 minutes at room temperature. The amount of radiolabeled probe (preparation described below) bound to Tyk2 was then quantified by scintillation counting, and the inhibition by the test compound calculated by comparison to wells either with no inhibitor (0% inhibition) or without Tyk2 (100% inhibition). The EC50 value is defined as the concentration of test compound required to inhibit radiolabeled probe binding by 50%. Probe Displacement Assay (HTRF Format)

Row | Structure (SMILES) | IC50 [1] [nM] | IC50 [2] [nM] | EC50 [3] [nM] | EC50 [4] [nM]
1 | Cc1ccnc(Nc2cc(Nc3ncccc3S(C)(=O)=O)c3nc(C)[nH]c3n2)c1 [Example 46, 7-N-(3-methanesulfonylpyridin-2-yl)-2-methyl-5-N-(4-methylpyridin-2-yl)-3H-imidazo[4,5-b]pyridine-5,7-diamine] | 2980 | 323 | 1.8 | 
2 | COc1ccc(Nc2cc(Nc3ncccc3S(C)(=O)=O)c3nc(C)[nH]c3n2)nn1 [Example 45, 7-N-(3-methanesulfonylpyridin-2-yl)-5-N-(6-methoxypyridazin-3-yl)-2-methyl-3H-imidazo[4,5-b]pyridine-5,7-diamine] | 462 | 288 | 1.2 | 
3 | Cc1nc2c(Nc3ccccc3S(C)(=O)=O)cc(Nc3ccc(C(=O)N4CCOCC4)cn3)nc2[nH]1 [Example 8, 7-N-(2-methanesulfonylphenyl)-2-methyl-5-N-[5-(morpholine-4-carbonyl)pyridin-2-yl]-3H-imidazo[4,5-b]pyridine-5,7-diamine] | 1950 | 1470 |  | 21
4 | Cc1ccc(Nc2cc(Nc3ccccc3S(C)(=O)=O)c3nc(C)[nH]c3n2)nc1 [Example 21, 7-N-(2-methanesulfonylphenyl)-2-methyl-5-N-(5-methylpyridin-2-yl)-3H-imidazo[4,5-b]pyridine-5,7-diamine] | 261 | 201 |  | 27
5 | Cc1nc2c(Nc3ncccc3S(C)(=O)=O)cc(Nc3ccc(N4CCOCC4)cn3)nc2[nH]1 [Example 50, 7-N-(3-methanesulfonylpyridin-2-yl)-2-methyl-5-N-[5-(morpholin-4-yl)pyridin-2-yl]-3H-imidazo[4,5-b]pyridine-5,7-diamine] | 367 | 267 | 1.1 | 
6 | COc1ccccc1Nc1cc(Nc2ccc(F)cn2)nc2[nH]c(C)nc12 [Example 38, 5-N-(5-fluoropyridin-2-yl)-7-N-(2-methoxyphenyl)-2-methyl-3H-imidazo[4,5-b]pyridine-5,7-diamine] | 8070 | 5180 |  | 509
7 | Cc1ccc(Nc2cc(Nc3ccccc3S(C)(=O)=O)c3nc(C)[nH]c3n2)nn1 [Example 11, 7-N-(2-methanesulfonylphenyl)-2-methyl-5-N-(6-methylpyridazin-3-yl)-3H-imidazo[4,5-b]pyridine-5,7-diamine] | 875 | 463 |  | 10
8 | COc1ccccc1Nc1cc(Nc2cc(C)nc(C)n2)nc2[nH]c(C)nc12 [Example 36, 5-N-(2,6-dimethylpyrimidin-4-yl)-7-N-(2-methoxyphenyl)-2-methyl-3H-imidazo[4,5-b]pyridine-5,7-diamine] | 824 | 1520 |  | 291
9 | COc1ccnc(Nc2cc(Nc3ccccc3S(C)(=O)=O)c3nc(C)[nH]c3n2)c1 [Example 18, 7-N-(2-methanesulfonylphenyl)-5-N-(4-methoxypyridin-2-yl)-2-methyl-3H-imidazo[4,5-b]pyridine-5,7-diamine] | 2400 | 3620 |  | 240
10 | COc1c(Nc2cc(Nc3ccc(F)cn3)nc3[nH]c(C)nc23)cccc1-c1ncn(C)n1 [Example 40, 5-N-(5-fluoropyridin-2-yl)-7-N-[2-methoxy-3-(1-methyl-1H-1,2,4-triazol-3-yl)phenyl]-2-methyl-3H-imidazo[4,5-b]pyridine-5,7-diamine] | 738 | 1240 |  | 38
11 | CCc1nc2c(Nc3ccccc3S(C)(=O)=O)cc(Nc3ccc(F)cn3)nc2[nH]1 [Example 51, 2-ethyl-5-N-(5-fluoropyridin-2-yl)-7-N-(2-methanesulfonylphenyl)-3H-imidazo[4,5-b]pyridine-5,7-diamine] | 1470 | 1420 |  | 158
12 | CCc1nc2c(Nc3ccccc3S(C)(=O)=O)cc(Nc3cc(C)nc(C)n3)nc2[nH]1 [Example 52, 5-N-(2,6-dimethylpyrimidin-4-yl)-2-ethyl-7-N-(2-methanesulfonylphenyl)-3H-imidazo[4,5-b]pyridine-5,7-diamine] | 1410 | 4260 |  | 107
13 | Cc1nc2c(Nc3ccccc3S(C)(=O)=O)cc(Nc3ccn(C(C)C)n3)nc2[nH]1 [Example 30, 7-N-(2-methanesulfonylphenyl)-2-methyl-5-N-[1-(propan-2-yl)-1H-pyrazol-3-yl]-3H-imidazo[4,5-b]pyridine-5,7-diamine] | 579 | 503 |  | 58
14 | COc1cnc(Nc2cc(Nc3ccccc3S(C)(=O)=O)c3nc(C)[nH]c3n2)cn1 [Example 6, 7-N-(2-methanesulfonylphenyl)-5-N-(5-methoxypyrazin-2-yl)-2-methyl-3H-imidazo[4,5-b]pyridine-5,7-diamine] | 447 | 371 |  | 37
15 | Cc1nc2c(Nc3ccccc3S(C)(=O)=O)cc(Nc3cnc(C(F)(F)F)cn3)nc2[nH]1 [Example 12, 7-N-(2-methanesulfonylphenyl)-2-methyl-5-N-[5-(trifluoromethyl)pyrazin-2-yl]-3H-imidazo[4,5-b]pyridine-5,7-diamine] | 357 | 818 |  | 30

Stronger by IC50 [1], values ahead:

Row | IC50 [1] [nM] | IC50 [2] [nM] | EC50 [3] [nM] | EC50 [4] [nM] | Structure (SMILES)
16 | 235 | 105 |  | 12 | Cc1nc2c(Nc3ccccc3S(C)(=O)=O)cc(Nc3cc(C)c(F)cn3)nc2[nH]1 [Example 31, 5-N-(5-fluoro-4-methylpyridin-2-yl)-7-N-(2-methanesulfonylphenyl)-2-methyl-3H-imidazo[4,5-b]pyridine-5,7-diamine]
17 | 185 | 190 |  | 9 | Cc1nc2c(Nc3ccccc3S(C)(=O)=O)cc(Nc3ccc(C#N)cn3)nc2[nH]1 [Example 13, 6-({7-[(2-methanesulfonylphenyl)amino]-2-methyl-3H-imidazo[4,5-b]pyridin-5-yl}amino)pyridine-3-carbonitrile]
18 | 183 | 207 |  | 31 | Cc1cnc(Nc2cc(Nc3ccccc3S(C)(=O)=O)c3nc(C)[nH]c3n2)cn1 [Example 15, 7-N-(2-methanesulfonylphenyl)-2-methyl-5-N-(5-methylpyrazin-2-yl)-3H-imidazo[4,5-b]pyridine-5,7-diamine]
19 | 162 | 88 |  | 13 | Cc1nc2c(Nc3ccccc3S(C)(=O)=O)cc(Nc3ccc(F)cn3)nc2[nH]1 [Example 2, N5-(5-fluoropyridin-2-yl)-2-methyl-N7-(2-(methylsulfonyl)phenyl)-3H-imidazo[4,5-b]pyridine-5,7-diamine]
20 | 90 | 128 |  | 14 | COc1ccc(Nc2cc(Nc3ccccc3S(C)(=O)=O)c3nc(C)[nH]c3n2)nc1 [Example 16, 7-N-(2-methanesulfonylphenyl)-5-N-(5-methoxypyridin-2-yl)-2-methyl-3H-imidazo[4,5-b]pyridine-5,7-diamine]
21 | 75 | 67 | 0.6 |  | COc1ccc(Nc2cc(Nc3ncccc3S(C)(=O)=O)c3nc(C)[nH]c3n2)nc1 [Example 42, 7-N-(3-methanesulfonylpyridin-2-yl)-5-N-(5-methoxypyridin-2-yl)-2-methyl-3H-imidazo[4,5-b]pyridine-5,7-diamine]
22 | 53 | 45 | 0.8 |  | Cc1nc2c(Nc3ncccc3S(C)(=O)=O)cc(Nc3cc(F)ccn3)nc2[nH]1 [Example 43, 5-N-(4-fluoropyridin-2-yl)-7-N-(3-methanesulfonylpyridin-2-yl)-2-methyl-3H-imidazo[4,5-b]pyridine-5,7-diamine]
23 | 28 | 68 | 0.4 |  | Cc1nc2c(Nc3ncccc3S(C)(=O)=O)cc(Nc3ccc(F)cn3)nc2[nH]1 [Example 41, 5-N-(5-fluoropyridin-2-yl)-7-N-(3-methanesulfonylpyridin-2-yl)-2-methyl-3H-imidazo[4,5-b]pyridine-5,7-diamine]
